Literature values as cited in patent US20250049951A1, “NUCLEIC ACID COMPOSITIONS AND USES THEREOF” (SURGE Therapeutics, Inc., priority 2021, published 2025).
Several values for one entry are separate records, joined by “and”; a condition that tells them apart may be missing. Identical values can stand only once.

How the values were obtained:
[1] = target: T1, TLR7 (Homo sapiens, UniProt Q9NYK1)
T1 construct: expressed in transfected cells; host or cells: HEK293
T1 sequence (Q9NYK1 27-1049): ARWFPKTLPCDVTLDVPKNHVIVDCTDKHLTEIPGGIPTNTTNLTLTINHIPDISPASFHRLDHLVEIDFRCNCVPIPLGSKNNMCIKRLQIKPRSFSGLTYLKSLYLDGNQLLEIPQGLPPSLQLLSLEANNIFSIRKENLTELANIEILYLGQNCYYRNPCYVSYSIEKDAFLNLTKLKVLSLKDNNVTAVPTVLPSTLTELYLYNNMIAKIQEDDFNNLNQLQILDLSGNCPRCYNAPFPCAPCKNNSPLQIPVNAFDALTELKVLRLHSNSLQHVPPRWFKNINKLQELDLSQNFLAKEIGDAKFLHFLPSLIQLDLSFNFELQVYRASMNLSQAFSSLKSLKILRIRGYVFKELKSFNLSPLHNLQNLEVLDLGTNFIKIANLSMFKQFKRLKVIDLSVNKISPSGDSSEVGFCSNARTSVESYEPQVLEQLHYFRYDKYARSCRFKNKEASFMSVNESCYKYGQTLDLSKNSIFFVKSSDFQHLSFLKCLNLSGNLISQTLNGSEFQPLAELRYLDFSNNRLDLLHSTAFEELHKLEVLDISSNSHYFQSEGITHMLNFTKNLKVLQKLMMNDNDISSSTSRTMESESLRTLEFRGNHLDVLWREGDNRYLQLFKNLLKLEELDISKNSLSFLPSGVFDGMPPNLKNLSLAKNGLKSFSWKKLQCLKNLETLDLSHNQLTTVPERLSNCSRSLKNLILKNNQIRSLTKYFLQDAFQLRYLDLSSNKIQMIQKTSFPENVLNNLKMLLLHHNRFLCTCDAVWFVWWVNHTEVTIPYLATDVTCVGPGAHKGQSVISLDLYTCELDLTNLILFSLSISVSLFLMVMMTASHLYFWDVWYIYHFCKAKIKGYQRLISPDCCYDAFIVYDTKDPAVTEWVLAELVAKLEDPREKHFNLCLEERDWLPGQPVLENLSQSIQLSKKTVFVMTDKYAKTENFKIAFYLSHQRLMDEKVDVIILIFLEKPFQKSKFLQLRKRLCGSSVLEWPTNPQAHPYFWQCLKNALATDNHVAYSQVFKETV

[2] = target: T2, TLR8 (Homo sapiens, UniProt Q9NR97); settings: TLR8-transfected HEK293 cells
T2 construct: expressed in transfected cells; host or cells: HEK293
T2 sequence (Q9NR97 27-1041): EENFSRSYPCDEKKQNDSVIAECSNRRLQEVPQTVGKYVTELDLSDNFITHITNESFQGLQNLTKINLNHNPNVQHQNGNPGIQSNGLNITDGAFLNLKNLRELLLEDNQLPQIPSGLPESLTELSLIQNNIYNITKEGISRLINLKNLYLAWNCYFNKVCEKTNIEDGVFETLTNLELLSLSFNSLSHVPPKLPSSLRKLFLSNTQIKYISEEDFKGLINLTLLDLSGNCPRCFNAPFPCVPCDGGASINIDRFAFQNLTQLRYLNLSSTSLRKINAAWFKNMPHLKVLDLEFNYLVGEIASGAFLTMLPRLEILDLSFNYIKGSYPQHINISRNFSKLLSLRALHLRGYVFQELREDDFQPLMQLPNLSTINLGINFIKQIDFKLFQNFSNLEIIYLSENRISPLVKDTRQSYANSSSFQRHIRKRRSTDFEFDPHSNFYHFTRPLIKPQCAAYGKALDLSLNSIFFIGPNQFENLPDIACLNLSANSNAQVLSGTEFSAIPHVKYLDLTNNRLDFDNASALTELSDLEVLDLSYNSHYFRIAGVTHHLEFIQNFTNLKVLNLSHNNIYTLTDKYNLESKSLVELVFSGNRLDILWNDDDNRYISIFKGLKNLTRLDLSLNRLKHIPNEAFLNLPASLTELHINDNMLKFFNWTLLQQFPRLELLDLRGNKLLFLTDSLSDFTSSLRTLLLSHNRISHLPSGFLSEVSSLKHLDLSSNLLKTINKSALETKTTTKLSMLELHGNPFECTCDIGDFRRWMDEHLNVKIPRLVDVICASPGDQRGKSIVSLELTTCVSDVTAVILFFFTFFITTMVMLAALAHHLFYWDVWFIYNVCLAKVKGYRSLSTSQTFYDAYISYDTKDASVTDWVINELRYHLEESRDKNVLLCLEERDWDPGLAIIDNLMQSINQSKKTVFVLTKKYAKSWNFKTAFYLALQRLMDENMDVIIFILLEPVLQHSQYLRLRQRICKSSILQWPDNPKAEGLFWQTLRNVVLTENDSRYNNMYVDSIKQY

| SMILES | amount required to activate NF-κB in TLR7- relative to TLR8-transfected HEK293 cells ([1]; times more than the 0.4 μM needed in TLR8 cells) [times] | concentration inducing NF-κB activation [2] | concentration inducing NF-κB activation ([1]; TLR7-transfected HEK293 cells) | water solubility [mg/mL] | potency in inducing NF-κB activation relative to CL075 ([2]; more potent than CL075) [×] | potency in inducing NF-κB activation relative to R848 ([2]; more potent than R848) [×] |
| --- | --- | --- | --- | --- | --- | --- |
| CCCc1nc2c(N)nc3ccccc3c2s1 [CL075] | ~10 | 0.4 μM and 0.1 μg/ml |  |  |  |  |
| CCOCC1Nc2c(N)nc3ccccc3c2N1 (stereo not shown) [CL097] |  | 4 μM and 1 μg/ml | 0.4 μM and 0.1 μg/ml | ≥ 20 |  |  |
| CCOC(=O)C1=Cc2ccc(-c3cccc(C#N)c3)cc2N=C(N)C1 [TL8-506] |  |  |  |  | ~25 | ~50 |
